The values that follow are results of earlier work, collected in patent publication US20240050950A1, “GRADIENT-BASED MICROFLUIDIC CIRCUIT, DEVICE, AND METHOD FOR PERFORMING AN ASSAY” (priority 2020, published 2024).

Counter-ions that a name gives are not always drawn. Numbered stars: 1 amine (or outer) side, 2 acyl side, 3 side chain; on linkers, the order of the positions; unused ones are H or OH. Bridge positions count the residues as written; N and C are the ends. Square brackets hold non-standard residues; d marks the D form. Peptide text beside a SMILES is read from it. I, II: the chains in the order shown. * marks the point of attachment. Actinocin(9to1) = Cc1c2oc3c(C)ccc(C(=O)[*:1])c3nc-2c(C(=O)[*:2])c(N)c1=O; Ileψ(thiazoline)Cys = CC[C@H](C)[C@H](N)C1=N[C@H](C(=O)*)CS1; NMeV = CN[C@H](C(=O)O)C(C)C; dOrn = NCCC[C@@H](N)C(=O)O; Sar = CNCC(=O)O

The conditions of one data set: Table 1, antimicrobial agents/drugs; cited from earlier work.
On to `OC(Cn1cncn1)(Cn1cncn1)c1ccc(F)cc1F` [Fluconazole], for which the Molar volume is listed as 205.2 ± 7.0 cm^3.

With `CC[C@H](C)[C@H](N)C1=N[C@H](C(=O)N[C@@H](CC(C)C)C(=O)N[C@H](CCC(=O)O)C(=O)N[C@H](C(=O)N[C@H]2CCCCNC(=O)[C@H](CC(N)=O)NC(=O)[C@@H](CC(=O)O)NC(=O)[C@H](Cc3cnc[nH]3)NC(=O)[C@@H](Cc3ccccc3)NC(=O)[C@H]([C@@H](C)CC)NC(=O)[C@@H](CCCN)NC2=O)[C@@H](C)CC)CS1` [Bacitracin] ({Ileψ(thiazoline)Cys}-L[dE]IK[dOrn]I[dF]H[dD]N; lactam 4-C), the Molar volume is listed as 994.4 ± 7.0 cm^3.

Turning to `Cc1c2oc3c(C)ccc(C(=O)N[C@@H]4C(=O)N[C@H](C(C)C)C(=O)N5CCC[C@H]5C(=O)N(C)CC(=O)N(C)[C@@H](C(C)C)C(=O)O[C@@H]4C)c3nc-2c(C(=O)N[C@@H]2C(=O)N[C@H](C(C)C)C(=O)N3CCC[C@H]3C(=O)N(C)CC(=O)N(C)[C@@H](C(C)C)C(=O)O[C@@H]2C)c(N)c1=O` [Actinomycin D] (I: T[dV]P[Sar][NMeV] / II: T[dV]P[Sar][NMeV]; ester I:1-I:C, II:1-II:C; linker I:N-II:N via Actinocin(9to1)), the Molar volume is recorded as 880.6 ± 7.0 cm^3.

On to `C/C(=C\C(=O)OCCCCCCCCC(=O)O)C[C@@H]1OC[C@H](C[C@@H]2O[C@H]2[C@@H](C)[C@H](C)O)[C@@H](O)[C@H]1O` [Mupirocin], for which the Molar volume was 423.0 ± 3.0 cm^3.

On to `CO[C@H]1/C=C/O[C@@]2(C)Oc3c(C)c(O)c4c(O)c(c(/C=N/N5CCN(C6CCCC6)CC5)c(O)c4c3C2=O)NC(=O)/C(C)=C\C=C\[C@H](C)[C@H](O)[C@@H](C)[C@@H](O)[C@@H](C)[C@H](OC(C)=O)[C@@H]1C` [Rifapentine (DL 473), Rifapentine], for which the Molar volume was 648.0 ± 7.0 cm^3.

For `CN(C/C=C/c1ccccc1)Cc1cccc2ccccc12` [Naftifine], the Molar volume is on record as 265.4 ± 3.0 cm^3.

For the compound `CN[C@@H]1[C@H](O[C@H]2[C@H](O[C@H]3[C@H](O)[C@@H](O)[C@H](NC(=N)N)[C@@H](O)[C@@H]3NC(=N)N)O[C@@H](C)[C@]2(O)CO)O[C@@H](CO)[C@H](O)[C@H]1O` [Dihydrostreptomycin], the Molar volume is 293.4 ± 7.0 cm^3.

As for `O=C(Nc1ccc([N+](=O)[O-])cc1Cl)c1cc(Cl)ccc1O` [Niclosamide], the Molar volume is recorded as 202.4 ± 3.0 cm^3.

In the case of `C[C@@]1(CO)[C@H](O)CC[C@@]2(C)[C@H]1CC[C@H]1C[C@@H]3C[C@@]12CC[C@]3(O)CO` [Aphidicolin], the Molar volume was 275.9 ± 5.0 cm^3.

As to “Lactoferricin B (SITCVRRAFALECIRAIAEKKADAV; Lactoferricin-B; UniProt P24627 52-76, looked up, fragment) [Lactoferricin B (metallibure)]”, the Molar volume is listed as 184.7 ± 3.0 cm^3.

For `CC1(C)S[C@@H]2[C@H](N)C(=O)N2[C@H]1C(=O)O` [(+)-6-Aminopenicillanic acid (6-APA), (+)-6-Aminopenicillanic acid], the Molar volume is given as 142.0 ± 5.0 cm^3.

In the case of `O=[N+]([O-])c1c(Cl)cccc1-c1c[nH]cc1Cl` [Pyrrolnitrin], the Molar volume was 168.7 ± 3.0 cm^3.

`COc1cccc2c1C(=O)c1c(O)c3c(c(O)c1C2=O)C[C@@](O)(C(=O)CO)C[C@@H]3O[C@H]1C[C@H](N)[C@H](O)[C@H](C)O1` [Doxorubicin]: the Molar volume is recorded as 336.6 ± 5.0 cm^3.

Take `CO[C@@H]1[C@H](O)C[C@@H](O[C@@H]2C[C@H](Oc3cc4cc5c(c(O)c4c(O)c3C)C(=O)[C@@H](O[C@H]3C[C@@H](O[C@H]4C[C@@H](O[C@H]6C[C@](C)(O)[C@@H](OC(C)=O)[C@H](C)O6)[C@H](O)[C@@H](C)O4)[C@H](O)[C@@H](C)O3)[C@H]([C@H](OC)C(=O)[C@@H](O)[C@@H](C)O)C5)O[C@H](C)[C@@H]2OC(C)=O)O[C@@H]1C` [Chromomycin A3]: the Molar volume is reported as 827.2 ± 5.0 cm^3.

As to `C=C1[C@@H](C)[C@H]2[C@H](Cc3ccccc3)NC(=O)[C@]23[C@H](OC(C)=O)/C=C/[C@@](C)(O)C(=O)[C@@H](C)C/C=C/[C@H]3[C@@H]1O` [Cytochalasin D (Zygosporin A, 1632828), Cytochalasin D], the Molar volume is recorded as 410.0 ± 5.0 cm^3.

Turning to `N[C@@H](C(=O)N[C@@H]1C(=O)N2C(C(=O)O)=C(Cl)CS[C@H]12)c1ccccc1` [Cefaclor], the Molar volume is reported as 226.4 ± 5.0 cm^3.

Consider `CC(=O)O[C@@]12CO[C@@H]1C[C@H](O)[C@@]1(C)C(=O)[C@H](O)C3=C(C)[C@@H](O)C[C@@](O)([C@@H](OC(=O)c4ccccc4)[C@H]21)C3(C)C` [10-Deacetylbaccatin III], for which the Molar volume is listed as 385.5 ± 5.0 cm^3.

The data set is the same for the next values; noted with them: Table 2, anticancer drugs; cited from earlier work.
As to `CC[C@]1(O)C[C@@H]2CN(CCc3c([nH]c4ccccc34)[C@@](C(=O)OC)(c3cc4c(cc3OC)N(C)[C@H]3[C@@](O)(C(=O)OC)[C@H](OC(C)=O)[C@]5(CC)C=CCN6CC[C@]43[C@@H]65)C2)C1` [Vinblastine Sulfate], the Molar volume is given as 590.0 ± 5.0 cm^3.

Regarding `C[C@]12CC[C@@H]3c4ccc(O)cc4C[C@@H](CCCCCCCCC[S+]([O-])CCCC(F)(F)C(F)(F)F)[C@H]3[C@@H]1CC[C@@H]2O` (stereo partly drawn) [Faslodex (Fulvestrant), Fulvestrant], the Molar volume was 505.1 ± 3.0 cm^3.

For the compound `CC(=O)[C@]1(O)Cc2c(O)c3c(c(O)c2[C@@H](O[C@H]2C[C@H](N)[C@H](O)[C@H](C)O2)C1)C(=O)c1ccccc1C3=O` [Idarubicin Hydrochloride], the Molar volume was 317.8 ± 5.0 cm^3.

Take `CC(C)(C)c1nc(-c2cccc(NS(=O)(=O)c3c(F)cccc3F)c2F)c(-c2ccnc(N)n2)s1` [Dabrafenib (Tafinlar), Dabrafenib]: the Molar volume was 359.8 ± 3.0 cm^3.

As to `O=C(CCCCCCC(=O)Nc1ccccc1)NO` [Vorinostat (Zolinza), Vorinostat], the Molar volume is recorded as 224.9 ± 3.0 cm^3.

Regarding `CC(=O)O[C@]1(C(C)=O)CC[C@H]2[C@@H]3C=C(C)C4=CC(=O)CC[C@]4(C)[C@H]3CC[C@@]21C` [Megestrol Acetate], the Molar volume is 333.3 ± 5.0 cm^3.

For the compound `Cc1c2oc3c(C)ccc(C(=O)N[C@@H]4C(=O)N[C@H](C(C)C)C(=O)N5CCC[C@H]5C(=O)N(C)CC(=O)N(C)[C@@H](C(C)C)C(=O)O[C@@H]4C)c3nc-2c(C(=O)N[C@@H]2C(=O)N[C@H](C(C)C)C(=O)N3CCC[C@H]3C(=O)N(C)CC(=O)N(C)[C@@H](C(C)C)C(=O)O[C@@H]2C)c(N)c1=O` [Actinomycin D] (I: T[dV]P[Sar][NMeV] / II: T[dV]P[Sar][NMeV]; ester I:1-I:C, II:1-II:C; linker I:N-II:N via Actinocin(9to1)), the Molar volume is on record as 880.6 ± 7.0 cm^3.

`C=CC(=O)Nc1cc(Nc2nccc(-c3cn(C)c4ccccc34)n2)c(OC)cc1N(C)CCN(C)C` [Osimertinib (Tagrisso), Osimertinib]: the Molar volume is on record as 418.4 ± 7.0 cm^3.

As for `COc1cc2ncnc(Nc3ccc(F)c(Cl)c3)c2cc1NC(=O)/C=C/CN1CCCCC1` [Dacomitinib (Vizimpro), Dacomitinib], the Molar volume is given as 349.4 ± 3.0 cm^3.

In the case of `O=C(O)CCCc1ccc(N(CCCl)CCCl)cc1` [Chlorambucil], the Molar volume was 243.6 ± 3.0 cm^3.

On to `N[C@@H](Cc1ccc(N(CCCl)CCCl)cc1)C(=O)O` [Melphalan], for which the Molar volume was 231.2 ± 3.0 cm^3.

`Nc1nc(=O)c2c([nH]1)NCC(CNc1ccc(C(=O)N[C@@H](CCC(=O)[O-])C(=O)[O-])cc1)N2C=O.[Ca+2]` (stereo partly drawn) [Fusilev (Leucovorin Calcium), Leucovorin Calcium]: the Molar volume was 280.7 ± 7.0 cm^3.

`COc1cccc2c1C(=O)c1c(O)c3c(c(O)c1C2=O)C[C@@](O)(C(=O)CO)C[C@@H]3O[C@H]1C[C@H](N)[C@H](O)[C@H](C)O1` [Doxorubicin]: the Molar volume is 336.6 ± 5.0 cm^3.

In the case of `O=C(c1cc(Cc2n[nH]c(=O)c3ccccc23)ccc1F)N1CCN(C(=O)C2CC2)CC1` [Lynparza (Olaparib), Olaparib], the Molar volume was 301.7 ± 7.0 cm^3.

Staying with this data set, now noted: Table 3, antifungal drugs and other molecules; cited from earlier work.
Consider `OC(Cn1cncn1)(Cn1cncn1)c1ccc(F)cc1F` [Fluconazole], for which the Molar volume is recorded as 205.2 cm^3.

As to `C=CCc1ccc(O)c(-c2cc(CC=C)ccc2O)c1` [5,5′-Diallyl-2,2′-biphenyldiol], the Molar volume is reported as 240.4 ± 3.0 cm^3.
